The values that follow come from PMC4904246 (Journal of Medicinal Chemistry, 2016).

The conditions of data set [1]: scaled; cited from earlier work.
The conditions of data set [2]: pH 6.5, 30 min at room temperature; cited from earlier work.
In data set [3] the target is T1, PvDHODH (Plasmodium vivax, UniProt A5K1N1).
T1 sequence (A5K1N1 160-572): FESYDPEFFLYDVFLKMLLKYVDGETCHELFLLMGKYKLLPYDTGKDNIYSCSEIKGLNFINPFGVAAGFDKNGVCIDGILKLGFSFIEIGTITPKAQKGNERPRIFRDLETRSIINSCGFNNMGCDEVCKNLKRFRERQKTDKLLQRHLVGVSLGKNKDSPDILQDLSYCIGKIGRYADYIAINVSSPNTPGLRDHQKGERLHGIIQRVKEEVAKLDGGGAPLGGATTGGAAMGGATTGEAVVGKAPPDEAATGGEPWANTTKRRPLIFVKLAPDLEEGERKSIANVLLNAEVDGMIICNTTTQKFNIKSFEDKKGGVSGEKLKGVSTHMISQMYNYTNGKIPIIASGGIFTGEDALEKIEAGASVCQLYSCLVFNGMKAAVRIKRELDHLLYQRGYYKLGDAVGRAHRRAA
To be noted: read-out: PvDHODH IC50; previous reports; 2 from 15, 3 from 16; cited from earlier work.

The nature of data set [4]: kinetic aqueous solubility by nephelometry. The format is physicochemical. To be noted: pH 6.5 phosphate buffer, pH 6.5.
The nature of data set [5]: in vitro metabolism, human liver microsomes. Format: in vitro ADME. To be noted: human, pooled human liver microsomes. On the technique in general: Liver microsomes are vesicles of endoplasmic reticulum, rich in cytochrome P450 enzymes.
Data set [6] is described as follows: plasma protein binding by ultracentrifugation, human plasma. Format: in vitro ADME.
In the next data set the target is dog DHODH (Canis lupus familiaris, UniProt A0A8I3MWX2). The data set can be described thus: biochemical.
Data set [7] has as its target T1, PvDHODH. To be noted: PvDHODH IC50 higher than PfDHODH IC50.
In data set [8] the test system is P. falciparum Pf3D7_0087/N9 parasites. To be noted: for AUCED90: total blood AUC at the ED90, Day 1 pharmacokinetic data, QD, only two dose levels.
Data set [9] is described as follows: plasma protein binding by ultracentrifugation, rat plasma. The format is in vitro ADME.
A short description of data set [10]: plasma protein binding by ultracentrifugation, mouse plasma. To be noted: for PPB mouse (% bound): mouse plasma, ultracentrifugation. Format: in vitro ADME.
The nature of a further data set: in vivo. To be noted: Sprague-Dawley, rat, plasma, iv.
For another data set, the target named is hERG K+ channel (Homo sapiens, UniProt Q12809). To be noted: SCID study.
The conditions of data set [11]: approximate.
For another data set, the target named is hDHODH (Homo sapiens, UniProt Q02127). To be noted: read-out: hDHODH IC50.

What is called IC50 is the concentration needed to halve the response being measured. As usually defined, the kinetic solubility is the concentration staying in solution when a stock, usually in DMSO, is diluted into the medium. What is called CLint scaled is the rate of metabolic loss divided by the concentration. A higher CLint scaled goes with rapid turnover. Broadly, the clearance is the rate of elimination divided by the concentration. Higher therefore signals a high capacity for elimination.

Each structure is given as a SMILES string. Values after ≈ are worked out from the molar mass of the structure shown. Marks after values point to notes of the source that are not given here.

Chain of dog DHODH (A0A8I3MWX2 1-406): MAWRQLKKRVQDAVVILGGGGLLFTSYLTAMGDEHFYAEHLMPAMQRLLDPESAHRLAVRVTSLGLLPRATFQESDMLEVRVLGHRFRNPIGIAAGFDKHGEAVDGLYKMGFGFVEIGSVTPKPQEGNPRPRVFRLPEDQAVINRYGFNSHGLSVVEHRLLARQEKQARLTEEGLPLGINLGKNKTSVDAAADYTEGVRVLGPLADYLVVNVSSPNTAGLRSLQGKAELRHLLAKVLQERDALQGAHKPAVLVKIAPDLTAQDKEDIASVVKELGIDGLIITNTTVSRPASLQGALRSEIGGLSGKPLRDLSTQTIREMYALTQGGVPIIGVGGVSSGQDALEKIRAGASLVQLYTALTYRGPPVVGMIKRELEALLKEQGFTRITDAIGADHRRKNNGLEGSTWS
Chain of hERG K+ channel (Q12809 whole entry): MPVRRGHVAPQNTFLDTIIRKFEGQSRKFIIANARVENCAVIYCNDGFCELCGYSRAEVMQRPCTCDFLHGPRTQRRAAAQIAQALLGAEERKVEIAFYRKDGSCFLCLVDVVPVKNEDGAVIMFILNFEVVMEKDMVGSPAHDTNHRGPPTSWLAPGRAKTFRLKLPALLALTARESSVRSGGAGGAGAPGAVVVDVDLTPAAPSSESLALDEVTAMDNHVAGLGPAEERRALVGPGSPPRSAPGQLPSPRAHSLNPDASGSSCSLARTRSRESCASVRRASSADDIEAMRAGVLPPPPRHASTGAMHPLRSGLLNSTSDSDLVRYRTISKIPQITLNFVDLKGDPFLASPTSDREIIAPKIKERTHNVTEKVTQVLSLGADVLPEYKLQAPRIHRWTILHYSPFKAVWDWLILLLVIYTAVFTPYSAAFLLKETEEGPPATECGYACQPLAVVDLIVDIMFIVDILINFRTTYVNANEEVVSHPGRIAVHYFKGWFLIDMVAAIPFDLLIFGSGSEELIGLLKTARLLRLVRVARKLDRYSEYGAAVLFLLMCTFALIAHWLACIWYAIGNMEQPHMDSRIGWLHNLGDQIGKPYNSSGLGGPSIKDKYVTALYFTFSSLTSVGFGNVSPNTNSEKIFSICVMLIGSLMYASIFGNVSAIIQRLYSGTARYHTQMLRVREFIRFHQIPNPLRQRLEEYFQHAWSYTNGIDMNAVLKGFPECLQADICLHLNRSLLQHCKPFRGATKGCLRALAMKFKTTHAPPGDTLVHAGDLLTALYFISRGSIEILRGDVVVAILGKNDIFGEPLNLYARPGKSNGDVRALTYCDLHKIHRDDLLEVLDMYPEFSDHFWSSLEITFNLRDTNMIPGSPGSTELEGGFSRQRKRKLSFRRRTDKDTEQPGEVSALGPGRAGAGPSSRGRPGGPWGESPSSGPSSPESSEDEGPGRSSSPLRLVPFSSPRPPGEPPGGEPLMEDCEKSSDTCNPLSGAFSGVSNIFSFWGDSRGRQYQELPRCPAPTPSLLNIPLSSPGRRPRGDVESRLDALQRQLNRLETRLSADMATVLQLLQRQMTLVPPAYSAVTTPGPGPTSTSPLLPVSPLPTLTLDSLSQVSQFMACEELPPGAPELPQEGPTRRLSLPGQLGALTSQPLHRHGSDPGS
Chain of hDHODH (Q02127 31-395 limits assumed): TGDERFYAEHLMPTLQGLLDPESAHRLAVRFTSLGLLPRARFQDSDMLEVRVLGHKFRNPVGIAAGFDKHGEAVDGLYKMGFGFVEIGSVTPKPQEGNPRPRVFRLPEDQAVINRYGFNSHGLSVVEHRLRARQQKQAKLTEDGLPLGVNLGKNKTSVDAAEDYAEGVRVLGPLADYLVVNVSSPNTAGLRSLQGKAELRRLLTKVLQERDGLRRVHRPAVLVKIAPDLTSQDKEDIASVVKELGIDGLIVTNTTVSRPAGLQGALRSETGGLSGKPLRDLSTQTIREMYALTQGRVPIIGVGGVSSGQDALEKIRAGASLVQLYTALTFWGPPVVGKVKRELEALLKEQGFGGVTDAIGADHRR

With `Cc1cc(Nc2ccc(C(F)(F)F)cc2)n2ncnc2n1` [Compound 3, (5-methyl[1,2,4]triazolo[1,5-a]pyrimidin-7-yl)(4-trifluoromethylphenyl)amine], the “predicted in vivo CLint human” value in data set [1] is recorded as 6.2/ND/ND mL/min/kg. Besides, the “kinetic solubility pH 6.5” value in [2] is recorded as 6.3–12.5 μg/mL. Also, at PvDHODH [3], the IC50 was 2.6 µM.

In the case of `Cc1cc(NC2CCc3cc(F)ccc3C2)n2nc(C(C)(F)F)nc2n1` (centres unmarked) [Compound 6, 2-(1,1-Difluoroethyl)-N-(6-fluoro-1,2,3,4-tetrahydronaphthalen-2-yl)-5-methyl-[1,2,4]triazolo[1,5-a]pyrimidin-7-amine], the kinetic solubility at 30 min in data set [4] was in the range of 6.3 to 12.5 µg/mL (≈ 17.4 to 34.6 µM). In addition, the intrinsic metabolic clearance (CLint scaled) at 1 μM in data set [5] was determined as 12 mL/min/kg.

Turning to `Cc1cc(NC2CCc3cc(Cl)ccc3C2)n2nc(C(C)(F)F)nc2n1` (centres unmarked) [Compound 7, 2-(1,1-Difluoroethyl)-N-(6-chloro-1,2,3,4-tetrahydronaphthalen-2-yl)-5-methyl-[1,2,4]triazolo[1,5-a]pyrimidin-7-amine], in data set [6], the “PPB human (% bound)” value is listed as 98.8 % bound. The compound further yielded an IC50 on dog DHODH above 100 µM. For the same compound, the “difference of IC50 P. vivax DHODH versus PfDHODH” value at PvDHODH [7] was 5–8 fold. In addition, the solubility (kinetic) at 30 min in data set [4] fell in the range of 3.1 to 6.3 µg/mL (≈ 8.2 to 16.7 µM). In data set [8], this compound came in with an AUCED90 above 23 μM·h/day. Further, the “PPB rat (% bound)” value in data set [9] is on record as 99.2 % bound. Moreover, the “mouse PPB (% bound)” value in [10] (approximation based on rat and human plasma protein binding data) is given as 99.2 ^c % bound. Further, the CLint scaled at 1 μM in [5] is below 5.8 mL/min/kg. In the data set “in vivo”, this compound displayed a clearance of 3.5 mL/min/kg.

In the case of `Cc1cc(N[C@H]2CCc3ccc(Cl)cc3C2)n2nc(C(C)(F)F)nc2n1` [Compound 9, (S)-N-(7-Chloro-1,2,3,4-tetrahydronaphthalen-2-yl)-2-(1,1-difluoroethyl)-5-methyl-[1,2,4]triazolo[1,5-a]pyrimidin-7-amine], the “PPB human (% bound)” value in [6] is recorded as 96.7 % bound. This compound showed an IC50 on dog DHODH above 100 µM. In addition, the “unbound Cmax at the ED90 lower than the IC50 on the hERG channel” value on hERG K+ channel is recorded as around 30 fold. Also, at PvDHODH [7], the “difference of IC50 P. vivax DHODH versus PfDHODH” value is listed as 1.5–3 fold. In data set [4], this compound displayed a solubility (kinetic) at 30 min of 3.1 to 6.3 µg/mL (≈ 8.2 to 16.7 µM). Also, the “PPB rat (% bound)” value in data set [9] is recorded as 96.4 % bound. The “PPB mouse (% bound)” value in data set [10] is listed as 97.4 % bound. For the same compound, the “Cmax at the ED90 in the SCID study, unbound concentration” value in data set [11] is “approximately 0.05 μM”. The intrinsic clearance (CLint scaled) at 1 μM in data set [5] is below 5.8 mL/min/kg.

On to `Cc1cc(NC2CCc3cc(Br)ccc3C2)n2nc(C(C)(F)F)nc2n1` (centres unmarked) [Compound 12, 2-(1,1-Difluoroethyl)-N-(6-bromo-1,2,3,4-tetrahydronaphthalen-2-yl)-5-methyl-[1,2,4]triazolo[1,5-a]pyrimidin-7-amine], for which the solubility (kinetic) at 30 min in data set [4] was 3.1 to 6.3 µg/mL (≈ 7.34 to 14.9 µM). In [5], this compound came in with a CLint scaled at 1 μM below 5.8 mL/min/kg.

For `Cc1cc(NC2CCc3ccc(Br)cc3C2)n2nc(C(C)(F)F)nc2n1` (centres unmarked) [Compound 14, 2-(1,1-Difluoroethyl)-N-(7-bromo-1,2,3,4-tetrahydronaphthalen-2-yl)-5-methyl-[1,2,4]triazolo[1,5-a]pyrimidin-7-amine], on hDHODH, the 50% inhibitory concentration (IC50) is above 100 µM.

In turn, `COc1ccc2c(c1)CC(Nc1cc(C)nc3nc(C(C)(F)F)nn13)CC2` (centres unmarked) [Compound 16, 2-(1,1-Difluoroethyl)-N-(7-methoxy-1,2,3,4-tetrahydronaphthal-en-2-yl)-5-methyl-[1,2,4]triazolo[1,5-a]pyrimidin-7-amine] showed a solubility (kinetic) at 30 min in data set [4] of 12.5 to 25 µg/mL (≈ 33.5 to 67 µM). The CLint scaled at 1 μM in data set [5] turned out to be 15 mL/min/kg.

For the compound `Cc1cc(NC2CCc3cc(F)c(F)cc3C2)n2nc(C(C)(F)F)nc2n1` (centres unmarked) [Compound 19, 2-(1,1-Difluoroethyl)-N-(6,7-difluoro-1,2,3,4-tetrahydronaphthalen-2-yl)-5-methyl-[1,2,4]triazolo[1,5-a]pyrimidin-7-amine], the intrinsic metabolic clearance (CLint scaled) at 1 μM in [5] came to 9.1 mL/min/kg.

In turn, `Cc1cc(NC2CCc3cc(F)c(C(F)(F)F)cc3C2)n2nc(C(C)(F)F)nc2n1` (centres unmarked) [Compound 20, 2-(1,1-Difluoroethyl)-N-(6-fluoro-7-(trifluoromethyl)-1,2,3,4-tetrahydronaphthalen-2-yl)-5-methyl-[1,2,4]triazolo[1,5-a]pyrimidin-7-amine] displayed a kinetic solubility at 30 min in data set [4] of 3.1 to 6.3 µg/mL (≈ 7.22 to 14.7 µM). Besides, the CLint scaled at 1 μM in data set [5] is below 5.8 mL/min/kg.

`Cc1cc(NC2CCc3cc(C(F)(F)F)c(F)cc3C2)n2nc(C(C)(F)F)nc2n1` (centres unmarked) [Compound 21, 2-(1,1-Difluoroethyl)-N-(7-fluoro-6-(trifluoromethyl)-1,2,3,4-tetrahydro-naphthalen-2-yl)-5-methyl-[1,2,4]triazolo[1,5-a]pyrimidin-7-amine] gave a kinetic solubility at 30 min in [4] of 1.6 to 3.1 µg/mL (≈ 3.73 to 7.22 µM). In [5], this compound displayed a CLint scaled at 1 μM below 5.8 mL/min/kg.

For `Cc1cc(NC2CCc3ccc(Cl)cc3C2)n2nc(C(F)(F)F)nc2n1` (centres unmarked) [Compound 24, N-(7-Chloro-1,2,3,4-tetrahydronaphthalen-2-yl)-5-methyl-2-(trifluoromethyl)-[1,2,4]triazolo[1,5-a]pyrimidin-7-amine], the kinetic solubility at 30 min in [4] was in the range of 1.6 to 3.1 µg/mL (≈ 4.19 to 8.12 µM). The same compound yielded an intrinsic metabolic clearance (CLint scaled) at 1 μM in data set [5] of 7.4 mL/min/kg.

For the compound `Cc1cc(NC2Cc3ccccc3C2)n2nc(C(C)(F)F)nc2n1` [Compound 26, 2-(1,1-Difluoroethyl)-N-(2,3-dihydro-1H-inden-2-yl)-5-methyl[1,2,4]triazolo[1,5-a]pyrim-idin-7-amine], the solubility (kinetic) at 30 min in [4] fell in the range of 25 to 50 µg/mL (≈ 75.9 to 152 µM). For the same compound, the intrinsic clearance (CLint scaled) at 1 μM in data set [5] is 20 mL/min/kg.

Turning to `Cc1cc(NC2Cc3ccc(Cl)cc3C2)n2nc(C(C)(F)F)nc2n1` (centres unmarked) [Compound 28, N-(5-Chloro-2,3-dihydro-1H-inden-2-yl)-2-(1,1-difluoroethyl)-5-methyl-[1,2,4]triazolo[1,5-a]pyrimidin-7-amine], the kinetic solubility at 30 min in data set [4] lay in the range of 6.3 to 12.5 µg/mL (≈ 17.3 to 34.4 µM). The CLint scaled at 1 μM in data set [5] was found to be 8.2 mL/min/kg.

Compound `Cc1cc(NC2Cc3c(C)ccc(C)c3C2)n2nc(C(C)(F)F)nc2n1` [Compound 32, N-(4,7-Dimethyl-2,3-dihydro-1H-inden-2-yl)-2-(1,1-difluoroethyl)-5-methyl-[1,2,4]triazolo[1,5-a]pyrimidin-7-amine] gave a kinetic solubility at 30 min in data set [4] of 6.3 to 12.5 µg/mL (≈ 17.6 to 35 µM). Further, the intrinsic metabolic clearance (CLint scaled) at 1 μM in [5] was determined as 138 mL/min/kg.

In turn, `Cc1cc(NC2Cc3c(F)ccc(F)c3C2)n2nc(C(C)(F)F)nc2n1` [Compound 33, N-(4,7-Difluoro-2,3-dihydro-1H-inden-2-yl)-2-(1,1-difluoroethyl)-5-methyl-[1,2,4]triazolo[1,5-a]pyrimidin-7-amine] yielded a kinetic solubility at 30 min in data set [4] of 6.3 to 12.5 µg/mL (≈ 17.2 to 34.2 µM). For the same compound, the CLint scaled at 1 μM in [5] is 27 mL/min/kg.

The compound `Cc1cc(NC2Cc3cccc(F)c3C2)n2nc(C(C)(F)F)nc2n1` (centres unmarked) [Compound 34, 2-(1,1-Difluoroethyl)-N-(4-fluoro-2,3-dihydro-1H-inden-2-yl)-5-methyl-[1,2,4]triazolo[1,5-a]pyrimidin-7-amine] returned a solubility (kinetic) at 30 min in data set [4] of 12.5 to 25 µg/mL (≈ 36 to 72 µM). Besides, the CLint scaled at 1 μM in data set [5] came out at 9.1 mL/min/kg.

As for `Cc1cc(NC2Cc3cc(F)c(F)cc3C2)n2nc(C(C)(F)F)nc2n1` [Compound 35, N-(5,6-Difluoro-2,3-dihydro-1H-inden-2-yl)-2-(1,1-difluoroethyl)-5-methyl-[1,2,4]triazolo[1,5-a]pyrimidin-7-amine], in [6], the “PPB human (% bound)” value was determined as 93.4 % bound. The compound also returned a half-maximal inhibitory concentration (IC50) on dog DHODH above 100 µM. For the same compound, the “difference of IC50 P. vivax DHODH versus PfDHODH” value at PvDHODH [7] turned out to be 7 fold. The kinetic solubility at 30 min in data set [4] lay in the range of 6.3 to 12.5 µg/mL (≈ 17.2 to 34.2 µM). In [8] (oral QD for 4 days), this compound yielded an ED90 above 30 mg/kg. Moreover, the AUCED90 entry in [8] was “∼137 μM·h/day”. Further, in data set [9], the “PPB rat (% bound)” value was 94.2 % bound. For the same compound, the “PPB mouse (% bound)” value in data set [10] was determined as 95.3 % bound. The compound also returned a CLint scaled at 1 μM in [5] below 5.8 mL/min/kg.

`Cc1cc(NC2Cc3cccc(C(F)(F)F)c3C2)n2nc(C(C)(F)F)nc2n1` (centres unmarked) [Compound 36, 2-(1,1-Difluoroethyl)-5-methyl-N-(4-(trifluoromethyl)-2,3-dihydro-1H-inden-2-yl)-[1,2,4]triazolo[1,5-a]pyrimidin-7-amine] came in with a kinetic solubility at 30 min in [4] of 6.3 to 12.5 µg/mL (≈ 15.9 to 31.5 µM). This compound also returned an intrinsic metabolic clearance (CLint scaled) at 1 μM in data set [5] of 25 mL/min/kg.
